Test results reported in US6429287B1, “Isolated molecules which complex with HLA-Cw*16 molecules, and uses thereof” (Ludwig Institute for Cancer Research, priority 1996, dated 2002).
Ends that are not written are not given here.

Tests used:
HLA-Cw*1601 = HLA-Cw*1601 (Homo sapiens, UniProt P10321, /M331V/P208H/P217L/Q277E/Q291P/R121W/S123Y/S297R/S48A/T329A/T363A/V319A); conditions: disclosed in earlier applications Ser. No. 08/79,110 and 08/196,630; cited from earlier work
[1] = tested on: HLA-Cw*1601 positive lymphoblastoid cell line, i.e., LB678-EBV; assay: 51Cr release assay: peptide-stimulated lysis by CTLs; type: cell-based, human; conditions: for ability of the peptide to stimulate lysis by CTLs: 51Cr labelled LB678-EBV target cells, peptide 15 minutes at room temperature, CTLs added, 51Cr release after four hours at 37° C.
Method: Based upon this hypothesis, a series of peptides were constructed, and lyophilized prior to testing. The lyophilized peptides were dissolved in 1 volume of DMSO, then 9 volumes of H2O, plus 10 mM of acetic acid. The thus diluted peptides were stored at −20° C.
The ability of the peptides to stimulate lysis by CTLs was tested via the ^51Cr release method of Boon et al., J. Exp. Med. 152: 1184-1193 (1980). Specifically, an HLA-Cw*1601 positive lymphoblastoid cell line, i.e., LB678-EBV was ^51Cr labelled for one hour at 37° C., and washed extensively. Then 1000 of these target cells were incubated in 96 well microplates, in the presence of various concentrations of peptide, for 15 minutes, at room temperature. CTLs were then added, and ^51Cr release was measured after four hours, at 37° C.

For “AARAVFLAL [SEQ ID NO: 1, preferred BAGE-derived nonapeptide of earlier applications]”, the “complexes with HLA-Cw*1601 and stimulates CTL 82/82” value (HLA-Cw*1601) is given as “stimulating the cell line CTL 82/82”.
With “KISGGPRISYPL [SEQ ID NO: 5, corresponds to amino acids 126-137 of MAGE-6]” the “ability of the peptide to stimulate lysis by CTLs” value (“ability of the peptide” below) [1] was “Lysis first occurred”.
In the case of “amino acids 1-9 of SEQ ID NO: 5: peptide consisting of amino acids 1-9 of SEQ ID NO: 5 (KISGGPRIS)”, the “ability of the peptide” value [1] is reported as “neither one stimulated lysis”.
“amino acids 2-10 of SEQ ID NO: 5: nonamer consisting of amino acids 2-10 of SEQ ID NO: 5 (ISGGPRISY)” gave an EC50 ([1]; 51Cr release, LB678-EBV target cells, CTLs, four hours at 37° C., FIG. 3, read-out: peptide concentration achieving half maximal lysis) of 30 nM.
For “amino acids 3-10 of SEQ ID NO: 5: peptide consisting of amino acids 3-10 of SEQ ID NO: 5 (SGGPRISY)”, the “ability of the peptide” value [1] was “neither one stimulated lysis”.
